In US8674085B2, “2′-branched nucleosides and Flaviviridae mutation” (priority 2002, dated 2014):

Columns and labels:
HCV = conditions: ribavirin alone; cited from earlier work
[1] = system: BVDV strain I-N-dIns (wild type); experiment: microbe, parasite or virus in culture; assay type: cell-based, bovine viral diarrhea virus
Description: (§1) To conduct the virus focus assay, MDBK cells were seeded onto 6-well plates containing 2×10^5 cells per well and grown at 37° C./5% CO2 for at least 5 hours before use. The test samples (culture supernatants combined with cell monolayers) were frozen/thawed twice, serially diluted by 10-fold in medium, and used to inoculate test cells in 6-well plates at 0.2 mL per well. The inoculum was removed after 1 hour of adsorption, and the cells were overlaid with 3 mL of 0.5% agarose in complete growth medium (1× DMEM (Cellgro), supplemented with 8% horse serum, penicillin, streptomycin, L-glutamine, sodium pyruvate, and 25 mM HEPES). After 3 days of incubation at 37° C./5% CO2, the plates were fixed for 1 hour with 3 mL of 7.4% formaldehyde in PBS, and washed with PBS. The cell monolayers were permeabilized with 1 mL of PBS-0.25% Triton X-100 per well for 10 minutes, and incubated with 0.5 mL of goat anti-BVDV antiserum (VMDR, Inc.; diluted 1:1000 in PBS-0.25% Triton X-100) for 1 hour. The antiserum was then removed, and cell monolayers were washed with PBS (twice for 15 min) and incubated with 0.5 mL of peroxidase-conjugated donkey anti-goat antibody (diluted 1:1000 in PBS-0.25% Triton X-100) for another 1 hour. After the antibody was removed, the cell monolayers were washed with PBS (twice for 15 min), and incubated with 0.5 mL of diaminobenzidine (DAB) peroxidase substrate solution (Vector Laboratories) at room temperature until virus foci become visible (approximately 15 minutes). All incubations were carried out with rocking. The staining was stopped by washing with water and the plates were allowed to air dry. Virus titers were calculated in FFU/mL, using the following equation: TFFU/mL=N×5×D; where T is a virus titer in FFU/mL; N is a number of foci per well; and D is a dilution factor for the corresponding virus sample.
(§2) To conduct the virus yield reduction assay, MDBK cells were seeded onto 24-well plates (1×10^5 cells per well) and grown at 37° C./5% CO2 overnight. […] The virus titer in the cell culture was quantified by focus assay as described above. […]

[2] = system: BVDV I-N-dIns β-D-2′-CH3-riboC-R (β-D-2′-CH3-riboC-resistant BVDV); experiment: BVDV virus yield reduction assay in de novo-infected MDBK cells; assay type: cell-based, bovine viral diarrhea virus
Description: as §1
To conduct the virus yield reduction assay, MDBK cells were seeded onto 24-well plates (1×10^5 cells per well) and grown at 37° C./5% CO2 overnight. Cells were infected with BVDV at a multiplicity of infection of 0.1. After 1-hour adsorption, the inoculum was removed, and cells were washed with PBS and then overlaid with 1 mL of fresh growth medium, containing serial 2-fold dilutions of the test compound (0-32 μM for β-D-2′-CH3-riboC and 0-800 IU/mL for Intron®A). After incubation at 37° C./5% CO2 for 48 hours, the plates were frozen/thawed at −70° C. twice to lyse the cell cultures. The virus titer in the cell culture was quantified by focus assay as described above. […] The EC50, EC90 and EC4-log values were derived by curve fitting using XLFit software.

BVDV strain I-NADL = experiment: BVDV virus yield reduction assay; assay type: cell-based, bovine viral diarrhea virus; conditions: cp
Description: as §1, with “sample. […]” for “sample.”
as §2

[3] = system: BVDV (strain I-N-dIns) in persistently infected MDBK cells; experiment: Single or double treatment of persistently infected MDBK cells, virus titers by focus assay; assay type: cell-based, bovine viral diarrhea virus; conditions: for log value of the BVDV titer: 0 IU/mL Interferon alpha-2b; for reduction of viral titers: single treatment, 7 days
Description: Persistent BVDV infection was established in MDBK cell line (ATCC, Manassas, Va., Catalog #: CCL-22) by in vitro infection of naive cells with a noncytophatic (ncp) BVDV (strain I-N-dIns; Dr. R. Donis, U. of Nebraska, Lincoln, Nebr.). The multiplicity of infection (MOI) was 0.01. Cells were passaged twice per week (splitting ratio 1:15) until the stable high-level of infection (10^6-10^7 focus forming units (FFU) per mL) was achieved, as was determined by a focus assay. Next, the persistently infected cells were grown in 6-well culture plates with 8 μM or without β-D-2′-CH3-riboC (Idenix Pharmaceuticals). Cell cultures were passaged every three to four days by splitting with a ratio of 1:15 to 1:20. […] The virus titers in cell cultures were monitored at the end of each passage by the virus focus assay.
as §1
The effect of Intron A, alone or in combination with β-D-2′-CH3-riboC, on the wild type BVDV was further studied in the persistently infected MDBK cells. In one experimental setting, the virus titers were determined after 7 days (two passages) of single or double treatment with several inhibitor concentrations.

[4] = system: BVDV (strain I-N-dIns) in persistently infected MDBK cells; experiment: Passaging of persistently infected MDBK cells with 8 μM β-D-2′-CH3-riboC (isolation of resistant BVDV); assay type: cell-based, bovine viral diarrhea virus
Description: Persistent BVDV infection was established in MDBK cell line (ATCC, Manassas, Va., Catalog #: CCL-22) by in vitro infection of naive cells with a noncytophatic (ncp) BVDV (strain I-N-dIns; Dr. R. Donis, U. of Nebraska, Lincoln, Nebr.). The multiplicity of infection (MOI) was 0.01. Cells were passaged twice per week (splitting ratio 1:15) until the stable high-level of infection (10^6-10^7 focus forming units (FFU) per mL) was achieved, as was determined by a focus assay. Next, the persistently infected cells were grown in 6-well culture plates with 8 μM or without β-D-2′-CH3-riboC (Idenix Pharmaceuticals). Cell cultures were passaged every three to four days by splitting with a ratio of 1:15 to 1:20. After eight passages, cell cultures grown in the presence of β-D-2′-CH3-riboC were expanded to T-75 culture flask, freeze/thawed twice, and used as a virus stock of β-D-2′-CH3-riboC-resistant BVDV for further characterization. The virus titers in cell cultures were monitored at the end of each passage by the virus focus assay.
To conduct the virus focus assay, MDBK cells were seeded onto 6-well plates containing 2×10^5 cells per well and grown at 37° C./5% CO2 for at least 5 hours before use. The test samples (culture supernatants combined with cell monolayers) were frozen/thawed twice, serially diluted by 10-fold in medium, and used to inoculate test cells in 6-well plates at 0.2 mL per well. The inoculum was removed after 1 hour of adsorption, and the cells were overlaid with 3 mL of 0.5% agarose in complete growth medium (1× DMEM (Cellgro), supplemented with 8% horse serum, penicillin, streptomycin, L-glutamine, sodium pyruvate, and 25 mM HEPES). After 3 days of incubation at 37° C./5% CO2, the plates were fixed for 1 hour with 3 mL of 7.4% formaldehyde in PBS, and washed with PBS. […] Virus titers were calculated in FFU/mL, using the following equation: TFFU/mL=N×5×D; where T is a virus titer in FFU/mL; N is a number of foci per well; and D is a dilution factor for the corresponding virus sample. […]

[5] = Bovine viral diarrhea virus isolates and strains, MDBK, BVDV strain I-N-dIns β-D-2′-CH3-riboC-R, ncp, 48 hours
[6] = Bovine viral diarrhea virus isolates and strains

**Q.** For NC(=O)c1ncn([C@@H]2O[C@H](CO)[C@@H](O)[C@H]2O)n1 [Ribavirin, 1-β-D-ribofuranosyl-1-1,2,4-triazole-3-carboxamide], which “serum amino transferase levels reduced to normal, share of patients” value (HCV) is on record?
**A.** The value was 40%.

**Q.** Which EC4 log ([1]; BVDV strain I-N-dIns, ncp, concentration reducing viral titer by 99.99%, 48 hours) does the source give for CC1(O)C(O)[C@@H](CO)O[C@H]1n1ccc(N)nc1=O (stereo partly drawn) [β-D-2′-CH3-riboC] here?
**A.** The EC4 log was 7.14±1.26 μM.

**Q.** What about the EC50 ([1]; Bovine viral diarrhea virus isolates and strains, MDBK, BVDV strain I-N-dIns, ncp, concentration reducing viral titer by 50%, 48 hours) of the same compound?
**A.** Its EC50 is 590 ± 120 nM.

**Q.** And the virus titers ([1]; at 16 μM, wild type virus, below the detection limit)?
**A.** Its virus titers is < 10 FFU/mL.

**Q.** What about the EC4 log ([2]; BVDV strain I-N-dIns β-D-2′-CH3-riboC-R, ncp, 48 hours) of the same compound?
**A.** The EC4 log was >32 μM.

**Q.** And the EC50 [2, 5]?
**A.** Its EC50 is > 32000 nM.

**Q.** What about the EC90 [2, 5] of the same compound?
**A.** The EC90 was > 32000 nM.

**Q.** What about the “fold more resistant to the inhibitor than the wild type virus” value ([2]; based on the EC50 values of the virus yield reduction assay) of the same compound?
**A.** Its value is “at least 54 fold”.

**Q.** What about the “effect on the resistant virus yield” value ([2]; highest concentration tested (32 μM)) of the same compound?
**A.** Its value is “no effect”.

**Q.** And the EC50 (BVDV strain I-NADL; [6])?
**A.** Its EC50 is 680 ± 80 nM.

**Q.** And the EC90 (BVDV strain I-NADL; [6])?
**A.** The EC90 was 1730 ± 110 nM.

**Q.** What about the EC4 log (BVDV strain I-NADL) of the same compound?
**A.** The EC4 log was 8.22 ± 0.05 μM.

**Q.** And the “log value of the BVDV titer” value ([3]; 2 μM β-D-2′-CH3-riboC, 7 days (two passages))?
**A.** The value was 5.10 log.

**Q.** What about the “log value of the BVDV titer” value ([3]; 4 μM β-D-2′-CH3-riboC, 7 days (two passages)) of the same compound?
**A.** Its value is 4.55 log.

**Q.** What about the “reduction of virus titer” value ([3]; 8 μM β-D-2′-CH3-riboC alone, 7 days (two passages)) of the same compound?
**A.** The value was 6.2 logs.

**Q.** What about the “log value of the BVDV titer” value ([3]; 8 μM β-D-2′-CH3-riboC, 7 days (two passages)) of the same compound?
**A.** The value was 0.40 log.

**Q.** What about the “reduction of viral titers” value ([3]; 2 μM β-D-2′-CH3-riboC) of the same compound?
**A.** The value was 1.61 logs.

**Q.** What about the “reduction of viral titers” value ([3]; 4 μM β-D-2′-CH3-riboC) of the same compound?
**A.** Its value is 2.06 logs.

**Q.** What about the “virus titer plateau after reappearance of virus” value ([4]; additional passaging in the presence of the inhibitor (virus reappeared at passage 3 to 5)) of the same compound?
**A.** Its value is 10^5 FFU/mL.

**Q.** And the “virus detection in culture” value ([4]; after two passages)?
**A.** Its value is “no longer detectable”.

**Q.** What about the “difference in virus titers versus untreated culture” value ([4]; observed even after 28 days of treatment) of the same compound?
**A.** The value was ~10 fold.
